Test results as given in US4822907A, “Method for recovering α-L-aspartyl-L-phenylalanine methyl ester” (Ajinomoto Co., Inc., priority 1986, dated 1989).
Like-named read-outs stand apart in the source and are kept apart here. Residues, ends and D or L forms follow the SMILES beside them.

Legend:
[1] = Desalting and concentration of neutralized mother liquor on flat reverse osmosis membrane; residual rate (Example 2, Table 2); format: physicochemical; details: pH 5.2, 25°, 40 kg/cm^2 G
Procedure: Next, water was added until the volume became the original volume. Further by repeating similar operation, the system was desalted and concentrated until the volume became half of the original volume.

[2] = Permeability of valuable matters through reverse osmosis membranes (general findings); details: in words; for permeability of valuable matters: reverse osmosis membrane having NaCl inhibition rate of approximately 30% or more
[3] = Desalting and concentration of raw solution on spiral polyamide reverse osmosis membranes; inhibition rate of each component (Example 1, Table 1); format: physicochemical; details: for Inhibition Rate: 40 kg/cm^2
Procedure: Desalting and concentration were performed, while cyclizing and mixing a non-permeation solution to and with the raw solution.
From the composition of the permeation liquid exhausted in this case, the inhibition rate of each component was calculated according to the following equation. [formula]
Analysis method: liquid chromatography (α-A(M)PM, α-APM, α-AP), (Cl^-).

[4] = not told
[5] = cited from earlier work
[6] = Polyamide Type (A), NaCl inhibition rate 50%
[7] = Polysulfone Type (B), NaCl inhibition rate 25%, comparison
[8] = membrane NaCl inhibition rate 15% (control), immediately after permeation started, pH 4.54, 20° C.
[9] = membrane NaCl inhibition rate 15% (control), when concentrated to 2.5 times, 20° C.
[10] = membrane NaCl inhibition rate 30%, immediately after permeation started, pH 4.54, 20° C.
[11] = membrane NaCl inhibition rate 30%, when concentrated to 2.5 times, 20° C.
[12] = membrane NaCl inhibition rate 60%, immediately after permeation started, pH 4.54, 20° C.
[13] = membrane NaCl inhibition rate 60%, when concentrated to 2.5 times, 20° C.
[14] = membrane NaCl inhibition rate 80%, immediately after permeation started, pH 4.54, 20° C.
[15] = membrane NaCl inhibition rate 80%, when concentrated to 2.5 times, 20° C.

COC(=O)C[C@H](N)C(=O)N[C@@H](Cc1ccccc1)C(=O)O [α-A(M)P, methyl ester at the L-aspartic acid β-carboxy residue of α-L-aspartyl-L-phenylalanine] (H-Asp(OMe)-Phe-OH)
Residual Rate [1, 6]: 97.8%
Residual Rate [1, 7]: 60.8%
permeability for reverse osmosis membranes [2]: low permeability
permeability of valuable matters [2]: low

Cl.N [NH4 Cl]
Residual Rate [1, 6]: 50.4%
Residual Rate [1, 7]: 32.5%

[Cl-].[Na+] [NaCl, sodium chloride]
Inhibition Rate [3, 8]: 11.0%
Inhibition Rate [3, 9]: 9.3%
Inhibition Rate [3, 10]: 23.5%
Inhibition Rate [3, 11]: 19.4%
Inhibition Rate [3, 12]: 60.3%
Inhibition Rate [3, 13]: 56.5%
Inhibition Rate [3, 14]: 85.6%
Inhibition Rate [3, 15]: 82.3%

COC(=O)[C@H](Cc1ccccc1)NC(=O)[C@@H](N)CC(=O)O [α-APM, α-L-aspartyl-L-phenylalanine methyl ester] (H-Asp-Phe-OMe)
Inhibition Rate [3, 8]: 74.1%
Inhibition Rate [3, 9]: 79.2%
Inhibition Rate [3, 10]: 96.2%
Inhibition Rate [3, 11]: 97.7%
Inhibition Rate [3, 12]: 99.1%
Inhibition Rate [3, 13]: 99.3%
Inhibition Rate [3, 14]: 99.0%
Inhibition Rate [3, 15]: 99.6%
Residual Rate [1, 6]: 98.0%
Residual Rate [1, 7]: 60.8%
permeability for reverse osmosis membranes [4]: low permeability
permeability of valuable matters [4]: low
stability in aqueous solution ([5]; high temperatures or acidic media): readily undergoes various undesirable reactions
stability in aqueous solution ([5]; temperatures lower than normal ambient temperatures): relatively stable

COC(=O)C[C@H](N)C(=O)N[C@@H](Cc1ccccc1)C(=O)OC [α-A(M)PM, methyl ester of the L-aspartic acid β-carboxyl residue of α-L-aspartyl-L-phenylalanine methyl ester] (H-Asp(OMe)-Phe-OMe)
permeability through membrane ([3]; in words, conclusion of Example 1): specifically readily permeable
Inhibition Rate [3, 8]: 56.7%
Inhibition Rate [3, 9]: 59.3%
Inhibition Rate [3, 10]: 82.7%
Inhibition Rate [3, 11]: 84.1%
Inhibition Rate [3, 12]: 91.0%
Inhibition Rate [3, 13]: 92.2%
Inhibition Rate [3, 14]: 93.1%
Inhibition Rate [3, 15]: 93.9%
Residual Rate [1, 6]: 80.3%
Residual Rate [1, 7]: 48.2%
permeability for reverse osmosis membranes [2]: especially high permeability
permeability of valuable matters [2]: low

N[C@@H](CC(=O)O)C(=O)N[C@@H](Cc1ccccc1)C(=O)O [α-AP, α-L-aspartyl-L-phenylalanine] (H-Asp-Phe-OH)
Inhibition Rate [3, 8]: 81.5%
Inhibition Rate [3, 9]: 85.6%
Inhibition Rate [3, 10]: 98.8%
Inhibition Rate [3, 11]: 98.3%
Inhibition Rate [3, 12]: 99.5%
Inhibition Rate [3, 13]: 99.7%
Inhibition Rate [3, 14]: 99.7%
Inhibition Rate [3, 15]: 99.9%
Residual Rate [1, 6]: 98.7%
Residual Rate [1, 7]: 68.9%
permeability for reverse osmosis membranes [2]: low permeability
permeability of valuable matters [2]: low
